Earlier results, collected in patent US12208072B2, “Compositions for removing necrotic or infected tissues from body surface lesions and from oral cavity” (DEBx Medical Holding B.V., priority 2019, dated 2025).

Assays:
[1] = for Ka1: first dissociation constant; for Ka2: second dissociation constant
[2] = 25° C.

Molecule | Ka1 [1] | Ka2 [1] | pKa [2]
OB(O)O [Boric] | 5.81 × 10^−10 |  | 
O=C(O)O [Carbonic] | 4.44 × 10^−7 | 4.69 × 10^−11 | 
OCl [Hypochlorous] | 3.0 × 10^−8 |  | 
O=C(O)CC(O)C(=O)O (stereo not drawn) [Malic] | 3.48 × 10^−4 | 8.00 × 10^−6 | 
O=[N+]([O-])O [Nitric] |  |  | −1.4
OP(O)O [Phosphorous] | 3 × 10^−2 | 1.62 × 10^−7 | 
O=C(O)CCC(=O)O [Succinic] | 6.21 × 10^−5 | 2.31 × 10^−6 | 
Anilinium ion | 2.50 × 10^−5 |  | 
